“Also recorded” adds a separate entry of the source.
Tests used:
[1] = test system: HeLa cells; experiment: BT assay: liposomal N1-eGFP transfection of HeLa cells in DNASE-conditioned media, GFP immunoblot; assay type: cell-based; conditions: equivalent doses of Ifn-γ, no macrophages
Description: In the main assay, an eukaryotic marker such as green fluorescent protein (GFP) expression plasmid complexed with a lipid reagent is transfected into HeLa cells incubated in control media, D1L3-conditioned media, or D1-conditioned media (FIG. 4). The assay is not limited to the use of GFP as a marker, but could use any of many expressed biomarkers encoded by nucleotides that can be assayed either immunochemistry, fluorescent detection, or enzymatic detectection, and these include but are not circumscribed to luciferase, chloramphenicol acetyl-transferase, antibiotic or chemical resistance genes, Beta-galactosidase, FLAG-, myc-hemaglutinnin-, or other epitope tagged molecules, as well as other markers of gene or nucleotide transduction. The endpoint of the assay is the detection of a synthesized protein, but could easily have been the detection of a transcribed gene product, since the assay ultimately measures the ability of D1L3 added the media/milieu overlaying the cells to block the ultimate association of an expressible plasmid with the transcriptional machinery.
Transfection Reagents and Resistance Assays. Lipofection of respective pcDNA3.1-D1 or -D3 ([…] purified with Promega Wizard Plus DNA system) was performed independently into 1-2 million HeLa cells, which produce a low background of secreted nuclease activity, when grown in DMEM with 10% FCS (LifeTech) in 6 well culture plates (Becton-Dickinson). […] Media of the transfected cells were conditioned for 36-48 hours and served as source of the respective enzymes. Nuclease activity in conditioned supernatant was measured by RDAs, zymograms and by testing activity against supercoiled pBluescript (Stratagene).
To test for the ability of the nucleases to block transfection, the media in individual wells of naive HeLa cells were replaced with conditioned media, and cells transfected with […] of N1-eGFP plasmid (Clontech) using various transfection reagents (FIG. 11) and their respective protocols. GFP expression by immunoblot directly correlated with transfection efficiency in present experiments. Thus, transfection efficiency was compared by densitometric analysis of GFP immunoblots.
GFP expression was also examined by fluorescent microscopy using a FITC filter. For microscopy, cells were fixed for 5 minutes in 4% paraformaldehyde dissolved into 1% PBS.
Antibody Reagents and Immunoblotting. After 24-36 hours, cells transfected with N1-eGFP were lysed in SDS-buffer and immunoblotted for expression with anti-GFP at 1:5000 dilution (Clontech). To confirm nearly equal protein loading per lane, anti-β-actin monoclonal antibody at 1:7,000 dilution (Sigma) were prepared. For immunoblots, […] protein was eletrophoretically separated by 12% SDS-PAGE gel, followed by electrotransfer to Immobilon-P membranes (Millipore) for expression studies. Immunoblotting was performed using ECL detection (Amersham).
Transfection efficiency was compared, wherever possible, by pixel densitometry of the scanned images using Scion Image 4.02 software.

[2] = test system: bone marrow macrophages; experiment: Induction of D1L3 in cultured bone marrow macrophages (anti-D1L3 immunoblot, RDA, zymogram); assay type: cell-based, C57BL mice; conditions: 100 U/ml for the interferons
Description: FIG. 22. Normal and induced expression of D1L3 in murine macrophages. […] In anti-D1L3 blots of cell lysates, the protein is seen both as a ^˜34 kDa uncleaved molecule and a ^˜28 kDa cleaved molecule. […] Cells were plated on serum-coated tissue culture dishes and incubated overnight, the next morning, non-adherent cells (N) were rinsed vigorously with PBS 1×, and both adeherent (A) and non-adherent cells (N) from C57BL, NZB/W, BXSB, and MRL were lysed and immunoblotted with anti-D1L3. While the ^˜34 kDa size band consistent with uncleaved D1L3 is present in both adherent and non-adherent, the cleaved form (^˜28 kDa) is present almost exclusively in the adherent population of presumed macrophages. Also noticable are the higher levels of expression of D1L3 in the 3 latter lupus strains. Panel B: Untreated bone marrow macrophages from NZB/WF1 mice have a much higher baseline expression expression of D1L3 than C57BL macrophages.
Induction is present in macrophages from both strain though the absolute level of induction appears greater in C57BL than in the SLE-prone NZB/W F1 strain. NZB/W protein loads in Ifn-γ-negative lane is slightly underloaded relative to actin. Panel C: Bone marrow macrophages isolated from bone marrow (via adherence) from MRL and C57BL mice, and cultured for 2 days in vitro, were induced by Ifn-γ. […] No induction of D1L3, RDA-DNASE, or zymographic DNASE activity is evident upon tratement with 100 U/ml of Ifn-alpha. […] Panel D: Bone marrow macrophages from C57BL and MRL mice cultured for 7 days in the presence of GM-CSF were induced with Ifn-γ, again showing the higher baseline levels of 28 kDa enzyme in the lupus prone strain, and in C57BL showing induction of levels aftern Ifn-γ. […]
(§1) Assays of Murine Cells. […] Splenocytes were counted using a hemochromocytometer, and plated at 2 million cells/ml on plastic 6-well Falcon tissue culture dishes (Becton Dickinson) in RPMI with 10% FCS. […]

[3] = test system: bone marrow-derived macrophages; experiment: BT activity of media conditioned by Ifn-γ treated bone marrow-derived macrophages, overlaid on HeLa cells; assay type: cell-based, C57BL mice; conditions: 100 U/ml; b134: 1000 U/ml vs 100U/ml
From the text: FIG. 29. Media conditioned by Ifn-γ treated macrophages from C57BI, but not NZB/W F1 mice is able to confer an in vitro barrier to liposomal gene transduction (BT). Panel A: Media conditioned by interferon-g (Ifn-γ) treated bone marrow-derived macrophages from C57 BL confers a barrier to liposomal transfection to HeLa. […] Panel B: As interferon dose increased, the ability by C57BL macrophages to confer a barrier to transfection increased. In the absence of Ifn-γ, macrophages confer a weaker barrier. Panel C: Interferon gamma induces both DNASE activity by RDA and a DNASE band compatible with DNASE1L3 at 28 kD, plus induces a BT activity. Samples were from macrophages from two C57BL mice (B1 and B2). In the left register is pre- and post interferon RDAs, in the middle register, pre and post interferon, and in the right register are the BT assays (GFP immunoblots of tranfected HeLa cells) on HeLa cells, including HeLa cells treated directly with interferon gamma for 48 hours. Media conditioned for 48 hours. Panel D: BT activity in macrophage-conditioned media from NZB/W F1 (NZ) or C57BL (BL). […]
as §1

## Ifn-γ: interferon-gamma (Genzyme), macrophage activator
[1]
  BT of HeLa cells treated with Ifn-γ or of media conditioned by them: neither confer nor possess a BT
[2]
  induction of D1L3 in macrophages: inducible; also recorded: significant induction of D1L3 levels
[3]
  BT activity of media conditioned by treated macrophages: confers BT; also recorded: Increased BT activity
